Patent US9248108B2 (Ottawa Hospital Research Institute, priority 2012, dated 2016)
Like-named read-outs stand apart in the source and are kept apart here. Marks after values point to notes of the source that are not given here.

Legend:
ovarian polyamines = assay: Ovarian polyamine quantification by ion chromatography; assay type: in vivo, mouse; conditions: older mice, 1% putrescine in drinking water for several days
Description: A Dionex ion chromatography system was used to analyze polyamines during ovulation. This system employs an online conductivity detector coupled with an anion suppressor such that only cations are detected. Ovaries were extracted in 5% trichloric acid (TCA) followed by extraction with diethyl ether. The TCA extracts were diluted in water before being applied to the ion chromatography system.
(§1) Polyamines from ovarian samples were determined by ion chromatography (IC) system (Rey and Pohl, 2003. J. Chromatography A 997:199-206). Ovaries were collected immediately after animal sacrifice and stored at −80° C. until use. The samples were thawed and minced, and then 5% trichloroacetic acid (TCA) was added (20 μl/mg). The samples were ultra-sonicated 30 seconds thrice. After centrifugation, the supernatants were extracted twice with diethyl ether. The mouse blood was collected in a tube containing 1 iu/ml heparin (LEO). After centrifugation, the supernatant (plasma) was collected and 10% TCA was added by 1:1 in volume. These plasma samples were extracted twice with diethyl ether, as noted above. The extracts were diluted 10 times in water for polyamine analysis on Dionex Ion ICS-2100 system (Thermo scientific, Dionex, Sunnyvale, Calif., USA) according to the manufacture instructions, using the support software of PeakNet 6.40 SP5 Build 778.

[1] = system: oocytes of very old (16 months) odc-/+ mice
Excerpt: Table 12 Summary of two independent experiments. N: total numbers of oocytes in two experiments; GV: oocytes remained in prophase I; MI, no germinal vesicle and no polar body seen (used for spindle examination); PB1, oocytes with first polar body; Fragmented: abnormal cleavage likely due to parthenogenetic activation. * one MI oocyte was lost during handling.

in vivo = conditions: mouse, plasma
Description: as §1

[2] = system: oocytes of C57BL/6 (8 months) mice
Description: GV oocytes isolated from the ovaries of control mice were incubated for 17 h in αMEM. […] Metaphase II eggs following IVM were karyotyped and data expressed. Karyotype analyses were carried out by dual stains (anti-CREST and Sytox green) of metaphase II chromosomes. N: number of interpretable metaphase II karyotypes containing at least 18 dyads or the equivalent (e.g. 17 dyads plus 2 separated sister chromatids). Hypoploid: 18-19 dyads. Euploid: 20 dyads. Hyperploid: 21. PSSC: any karyotypes containing separated sister chromatid(s), with the total of at least 18 dyads or the equivalents. Aneuploid: 2×hyperploid+PSSC. Detailed breakdowns are in Table 14.
Mice were euthanized by cervical dislocation 44-46 h after they were primed with 5 IU equine chorionic gonadotropin (eCG) intraperitonally. […] Ovaries were immediately removed and minced in M2 medium (Sigma; unless otherwise indicated, other chemicals used in this study were also purchased from Sigma) to release oocytes. Oocytes with a clear germinal vesicle (GV) were used for in vitro maturation (IVM) for 17 hours in IVM medium (αMEM medium supplemented with 5% fetal bovine serum and 1 mM L-glutamine) overlaid with mineral oil.
Chromosome spread was carried out according to Hodges and Hunt (Hodges & Hunt, 2002) with minor modifications. In brief, oocytes or 2-cell embryos were collected in M2 medium. The zona pellucida was removed by treatment with 0.5 units/μl pronase at 37° C. for 20 sec. Zona-free oocytes/embryos were rinsed in M2 medium to detach polar bodies. The oocytes/embryos were individually plated onto glass slides (1-10 oocytes/embryos per slide) predipped in the fixative (prepared weekly and stored at 4° C.) containing 1% paraformaldehyde (w/v), 0.15% Triton X-100 (v/v), and 3 mM dithiothreitol, pH 9.2. Slides were kept overnight in moist boxes at room temperature. The slides were then rinsed in 0.5% Kodak Flo (Eastman Kodak Company, Rochester, N.Y.) solution and air-dried. The slides were incubated in 1:200 diluted human anti-centromere serum (Immunovision, Springdale, Ark.) in PBS containing 1% BSA overnight at 4° C., in 1:300 diluted secondary antibody (goat anti-human) conjugated with rhodamine (Jackson ImmunoResearch) in PBS-BSA for 1 h at room temperature, and 0.1% SYTOX green (Invitrogen, Eugene, Oreg.) in PBS for 30 min at room temperature. To avoid bias, the slides were coded by a colleague before being examined by an investigator using epifluorescence microscopy and photographed. Decoding was done after karyotypes were tabulated.

[3] = 1 mM putrescine in drinking water, stated by Penderville H. et al; cited from earlier work
9-month-old CF1 mice = system: 9-month-old CF1 mice
Excerpt: Four (4) days later, the female mice are caged individually with fertile males (1:1) overnight. The females were examined in the morning for the presence of a vaginal plug (indicative of mating) and “plugged” females are considered E0 and separated from the males. Mice without a plug were continued mating until a plug was seen, or for up to a total of 4 days (average length of a mouse estrus cycle). Mice were sacrificed on E12 (“unplugged” mice were also sacrificed, taking the next morning following the 4-day-mating as E0) and their uterine horns inspected for normal embryos and dead embryos (resorption).

[4] = number of MII eggs, 1% putrescine drinking water one week, IVM with 5 mM putrescine

With `NCCCCN` [Putrescine, putrescine] the “levels of ovarian spermidine and spermine” value (ovarian polyamines) was “remained unchanged”, the “levels of ovarian putrescine compared to control mice” value (ovarian polyamines; before or 5 h after hCG) was “appreciably higher” and the “Normal MI spindle” value ([1]; normal/examined MI oocytes) was 19/20*. It also gave a dead ([1]; number of oocytes) of 1, a GV ([1]; number of oocytes remained in prophase I, two experiments) of 6 and a fragmented ([1]; number of oocytes with abnormal cleavage) of 0. It also gave a PB1 ([1]; number of oocytes with first polar body) of 2, an MI ([1]; number of oocytes, no germinal vesicle and no polar body) of 21 and a concentration at 20 min (in vivo; sc) of 42 µM. The concentration at 40 min (in vivo; subcutaneous) was 16 µM, the concentration at 60 min (in vivo; subcutaneous) was 8 µM and the “% Hyperploidy” value ([2]; 1% putrescine drinking water one week, IVM with 5 mM putrescine) was 0%. For the same compound, the “% Aneuploidy” value ([2]; Aneuploid: 2×hyperploid+PSSC, 1% putrescine drinking water one week, IVM with 5 mM putrescine) was 5.3%, the “Euploid 20” value [2, 4] was 83 and the “Hyperploid 21” value [2, 4] was 0. The “Hyperploid 22” value [2, 4] was 0, the “Hypoploid 19” value [2, 4] was 21 and the PSSC [2, 4] was 6. For the same compound, the “Hypoploid 18” value ([2]; number of MII eggs, 1% putrescine drinking water one week, then 17 h IVM with 5 mM putrescine) was 4, the Hyperploid ([2]; number of eggs per experiment date (breakdown of Table 13)) was 0 and the “number of fully grown GV oocytes in the ovaries” value ([2]; putrescine in drinking water, n=13) was 25.3 /mouse. The fetal toxicity [3] was “fetal toxicity was found”, the Total implants (9-month-old CF1 mice; E12) was 300 and the Total normal fetuses (9-month-old CF1 mice; E12) was 282. The Total resorption sites (9-month-old CF1 mice; E12) was 18, the “Total normal fetuses/total animals” value (9-month-old CF1 mice; E12, as fraction) was 282/29 and the “Total normal fetuses/total pregnancies” value (9-month-old CF1 mice; E12, as fraction) was 282/24. For the same compound, the “Total resorption sites/total animals” value (9-month-old CF1 mice; E12, as fraction) was 18/29, the “Total resorption sites/total implants” value (9-month-old CF1 mice; E12, as fraction) was 18/300 and the “Total resorption sites/total pregnancies” value (9-month-old CF1 mice; E12, as fraction) was 18/24. The “Total normal fetuses/total animals” value (9-month-old CF1 mice; E12, quotient) was “(9.27)”, the “Total normal fetuses/total pregnancies” value (9-month-old CF1 mice; E12, quotient) was “(11.75)” and the “Total resorption sites/total animals” value (9-month-old CF1 mice; E12, quotient) was “(0.62)”. The Total pregnancy (9-month-old CF1 mice; number of mice, 1% putrescine in drinking water) was 24, the Plug observed (9-month-old CF1 mice; number of mice, 1% putrescine in drinking water 5-8 days up to plug) was 25 and the Plug pregnancy (9-month-old CF1 mice; percent of plugged mice) was “(92.00%)”. For the same compound, the Unplug pregnancy (9-month-old CF1 mice; percent of unplugged mice) was “(25.00%)”, the Plug pregnancy (9-month-old CF1 mice; pregnant/plugged mice) was 23/25 and the Unplug pregnancy (9-month-old CF1 mice; pregnant/unplugged mice) was 1/4.
